Laboratory results published in patent US7202239B2, “Cyclohexylphenyl carboxamides tocolytic oxytocin receptor antagonists” (Wyeth, priority 2001, dated 2007).

- melting point: 127 to 129 °C
SMILES: O=C(c1ccc(C2CCCCC2)cc1)N1Cc2cccn2Cc2ccccc21 [Example 4, 10-(4-Cyclohexyl-benzoyl)-10,11-dihydro-5H-pyrrolo[2,1-c][1,4]benzodiazepine]
